Results taken from patent publication US20050261332A1, “Sulfonamides and uses thereof” (priority 2004, published 2005).

What follows are compounds tested against T1, GHS-R (Homo sapiens, UniProt Q92847) (assay: GHS-R competition binding assay (Ki of GHS-R antagonizing compounds)).
T1 construct: expressed in transfected cells; host or cells: COS-7 cells
Experimental: One exemplary binding assay is as follows: GHS-R expressing COS-7 cells cultured at a density of 1×10^5 cells per well so that binding is assayed in the range of about 5-8 % binding of the radioactive ligand. For example, the cells can express an endogenous nucleic acid encoding GHS-R or an exogenous nucleic acid encoding GHS-R. Cells transfected with an exogenous nucleic acid encoding GHS-R can be used, e.g., two days, after transfection. Competition binding experiments are performed for 3 hours at 4° C. using 25 pM of ^125I-ghrelin in 0.5 ml of 50 mM HEPES buffer, pH 7.4, supplemented with 1 mM CaCl2, 5 mM MgCl2, and 0.1% (w/v) bovine serum albumin, 40 mg/ml bacitracin. Non-specific binding can be determined as the binding in the presence of […] of unlabeled ghrelin. Cells are washed twice in 0.5 ml of ice-cold buffer and then lysed with 0.5-1 ml of lysis buffer (8 M Urea, 2% NP40 in 3 M acetic acid). After washing and lysis, the bound radioactivity is counted. Assays can be run in duplicate or triplicate, e.g., to provide statistical power.
Values of the dissociation and inhibition constants (Kd and Ki) can be estimated from competition binding experiments using the equation: Kd=IC50-L and Ki=IC50/(1+L/Kd), where L is the concentration of radioactive ligand. Bmax values can be estimated from competition binding experiments using the equation Bmax=B0 IC50/[ligand], where B0 is the specifically bound radioligand.

T1 sequence (Q92847 whole entry, species assumed): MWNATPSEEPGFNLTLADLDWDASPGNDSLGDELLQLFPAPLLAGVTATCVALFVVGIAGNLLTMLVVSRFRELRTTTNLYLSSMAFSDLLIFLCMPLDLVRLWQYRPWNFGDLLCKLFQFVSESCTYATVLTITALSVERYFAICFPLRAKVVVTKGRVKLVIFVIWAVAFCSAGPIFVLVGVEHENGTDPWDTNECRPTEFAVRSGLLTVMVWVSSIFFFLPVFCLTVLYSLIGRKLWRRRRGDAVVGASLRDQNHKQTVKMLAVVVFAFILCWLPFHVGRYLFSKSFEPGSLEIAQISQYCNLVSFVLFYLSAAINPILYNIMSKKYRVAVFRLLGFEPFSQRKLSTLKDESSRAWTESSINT

Row | Ki [nM] | SMILES
1 | 100 to 1000 | CCN(CC)CCCS(=O)(=O)N[C@H](CCc1ccccc1)C(=O)NCc1ccc(-c2ccccc2-c2nn[nH]n2)cc1 [Compound 161, (R)-N-((2′-(2H-tetrazol-5-yl)biphenyl-4-yl)methyl)-2-(3-(diethylamino)propylsulfonamido)-4-phenylbutanamide]
2 | < 100 | CCN(CC)CCCS(=O)(=O)N[C@H](COCc1ccccc1)C(=O)NCc1ccc(-c2ccccc2-c2noc(=S)[nH]2)cc1 [Compound 162, (R)-3-Benzyloxy-2-(3-diethylamino-propane-1-sulfonylamino)-N-[2′-(5-thioxo-4,5-dihydro-[1,2,4]oxadiazol-3-yl)-biphenyl-4-ylmethyl]-propionamide]
3 | < 100 | CCN(CC)CCCS(=O)(=O)N[C@H](CCc1ccccc1)C(=O)N1CCC2(CC1)CN(S(C)(=O)=O)c1ccccc12 [Compound 163, (R)-3-(diethylamino)-N-(1-(1-(methylsulfonyl)spiro[indoline-3,4′-piperidine]-1′-yl)-1-oxo-4-phenylbutan-2-yl)propane-1-sulfonamide]
4 | < 100 | CCN(CC)CCCS(=O)(=O)N[C@H](CCc1ccccc1)C(=O)c1ccc(-c2ccccc2CO)cc1 [Compound 168, (R)-3-(diethylamino)-N-(1-(2′-(hydroxymethyl)biphenyl-4-yl)-1-oxo-4-phenylbutan-2-yl)propane-1-sulfonamide]
5 | 100 to 1000 | CCN(CC)CCCS(=O)(=O)N[C@H](CCc1ccccc1)C(=O)c1ccc(-c2ccccc2NC(=O)NC)cc1 [Compound 171, (R)-3-(diethylamino)-N-(1-(2′-(3-methylureido)biphenyl-4-yl)-1-oxo-4-phenylbutan-2-yl)propane-1-sulfonamide]
6 | 100 to 1000 | CCN(CC)CCCS(=O)(=O)N[C@H](CCc1ccccc1)C(=O)c1ccc(-c2ccccc2C(N)=O)cc1 [Compound 174, (R)-4′-(2-(3-(diethylamino)propylsulfonamido)-4-phenylbutanoyl)biphenyl-2-carboxamide]
7 | 100 to 1000 | CCNC(=O)Nc1ccccc1-c1ccc(C(=O)[C@@H](COCc2ccccc2)NS(=O)(=O)CCCN(CC)CC)cc1 [Compound 175, (R)-N-(3-(benzyloxy)-1-(2′-(3-ethylureido)biphenyl-4-yl)-1-oxopropan-2-yl)-3-(diethylamino)propane-1-sulfonamide]
8 | 100 to 1000 | CCN(CC)CCCS(=O)(=O)N[C@H](CCc1ccccc1)C(=O)NCc1ccc(-c2ccccc2CNC(=O)OC(C)(C)C)cc1 [Compound 182, (R)-(4′-{[2-(3-Diethylamino-propane-1-sulfonylamino)-4-phenyl-butyrylamino]-methyl}-biphenyl-2-ylmethyl)-carbamic acid tert-butyl ester]

Second part, the compound before the results:

Row | SMILES | Ki [nM]
9 | CCN(CC)CCCS(=O)(=O)N(C)[C@H](COCc1ccccc1)C(=O)N1CCC2(CC1)CN(S(C)(=O)=O)c1ccccc12 [Compound 160, (R)-N-(3-(benzyloxy)-1-(1-(methylsulfonyl)spiro[indoline-3,4′-piperidine]-1′-yl)-1-oxopropan-2-yl)-3-(diethylamino)-N-methylpropane-1-sulfonamide] | < 100
10 | CCN(CC)CCCS(=O)(=O)N[C@H](COCc1ccccc1)C(=O)NCc1ccc(-c2ccccc2-c2noc(=O)[nH]2)cc1 [Compound 164, (R)-3-Benzyloxy-2-(3-diethylamino-propane-1-sulfonylamino)-N-[2′-(5-oxo-4,5-dihydro-[1,2,4]oxadiazol-3-yl)-biphenyl-4-ylmethyl]-propionamide] | 100 to 1000
11 | CCN(CC)CCCS(=O)(=O)N[C@H](COCc1ccccc1)C(=O)N1CCC2(C=Cc3ccccc32)CC1 [Compound 165, (R)-N-(3-(benzyloxy)-1-oxo-1-(spiro[indene-1,4′-piperidine]-1′-yl)propan-2-yl)-3-(diethylamino)propane-1-sulfonamide] | < 100
12 | CCN(CC)CCCS(=O)(=O)N[C@H](COCc1ccccc1)C(=O)c1ccc(-c2ccccc2NC(=O)OC(C)(C)C)cc1 [Compound 166, (R)-{4′-[3-Benzyloxy-2-(3-diethylamino-propane-1-sulfonylamino)-propionyl]-biphenyl-2-yl}-carbamic acid tert-butyl ester] | > 1000
13 | CCN(CC)CCCS(=O)(=O)N[C@H](CCc1ccccc1)C(=O)c1ccc(-c2ccccc2NC(=O)OC(C)(C)C)cc1 [Compound 167, (R)-tert-butyl 4′-(2-(3-(diethylamino)propylsulfonamido)-4-phenylbutanoyl)biphenyl-2-ylcarbamate] | 100 to 1000
14 | CCN(CC)CCCS(=O)(=O)N[C@H](CCc1ccccc1)C(=O)c1ccc(-c2ccccc2N)cc1 [Compound 169] | < 100
15 | CCN(CC)CCCS(=O)(=O)N[C@H](CCc1ccccc1)C(=O)NCc1ccc(-c2ccccc2CNC(C)=O)cc1 [Compound 170, (R)-N-((2′-(acetamidomethyl)biphenyl-4-yl)methyl)-2-(3-(diethylamino)propylsulfonamido)-4-phenylbutanamide] | 100 to 1000
16 | CCNC(=O)Nc1ccccc1-c1ccc(C(=O)[C@@H](CCc2ccccc2)NS(=O)(=O)CCCN(CC)CC)cc1 [Compound 172, (R)-3-(diethylamino)-N-(1-(2′-(3-ethylureido)biphenyl-4-yl)-1-oxo-4-phenylbutan-2-yl)propane-1-sulfonamide] | 100 to 1000
17 | CCN(CC)CCCS(=O)(=O)N[C@H](CCc1ccccc1)C(=O)c1ccc(-c2ccccc2COC(=O)NC)cc1 [Compound 173, (R)-(4′-(2-(3-(diethylamino)propylsulfonamido)-4-phenylbutanoyl)biphenyl-2-yl)methyl methylcarbamate] | < 100
18 | CCN(CC)CCCS(=O)(=O)N[C@H](COCc1ccccc1)C(=O)c1ccc(-c2ccccc2NC(=O)NC)cc1 [Compound 176, (R)-N-(3-(benzyloxy)-1-(2′-(3-methylureido)biphenyl-4-yl)-1-oxopropan-2-yl)-3-(diethylamino)propane-1-sulfonamide] | 100 to 1000
19 | CCN(CC)CCCS(=O)(=O)N[C@H](COCc1ccccc1)C(=O)c1ccc(-c2ccccc2C(N)=O)cc1 [Compound 177, (R)-4′-[3-Benzyloxy-2-(3-diethylamino-propane-1-sulfonylamino)-propionyl]-biphenyl-2-carboxylic acid amide] | 100 to 1000
20 | CCN(CC)CCCS(=O)(=O)N[C@H](COCc1ccccc1)C(=O)c1ccc(-c2ccccc2C#N)cc1 [Compound 178, (R)-N-(3-(benzyloxy)-1-(2′-cyanobiphenyl-4-yl)-1-oxopropan-2-yl)-3-(diethylamino)propane-1-sulfonamide] | 100 to 1000
21 | CCN(CC)CCCS(=O)(=O)N[C@H](CCc1ccccc1)C(=O)NCc1ccc(-c2ccccc2C(=O)NC)cc1 [Compound 179, (R)-4′-{[2-(3-Diethylamino-propane-1-sulfonylamino)-4-phenyl-butyrylamino]-methyl}-biphenyl-2-carboxylic acid methylamide] | 100 to 1000
22 | CCN(CC)CCCS(=O)(=O)N[C@H](CCc1ccccc1)C(=O)NCc1ccc(-c2ccccc2CN)cc1 [Compound 180, (R)-N-((2′-(aminomethyl)biphenyl-4-yl)methyl)-2-(3-(diethylamino)propylsulfonamido)-4-phenylbutanamide] | 100 to 1000
23 | CCN(CC)CCCS(=O)(=O)N[C@H](CCc1ccccc1)C(=O)NCc1ccc(-c2ccccc2CC(=O)NC)cc1 [Compound 181, (R)-2-(3-(diethylamino)propylsulfonamido)-N-((2′-(2-(methylamino)-2-oxoethyl)biphenyl-4-yl)methyl)-4-phenylbutanamide] | 100 to 1000
